Experimental data taken from the NIST ThermoML archive (doi:10.1016/j.tca.2008.10.017).
± gives the expanded uncertainty stated by the source.

Assay: molar heat capacity at constant pressure
Conditions: 101.33 kPa, Crystal 2, Small (less than 1 g) adiabatic calorimetry

CCCC[N+](CCCC)(CCCC)CCCC.[I-] [tetrabutylammonium iodide]
Conditions	molar heat capacity at constant pressure [J/K/mol]
5 K	0.875 ± 0.037
5.6 K	0.546 ± 0.031
5.7 K	0.62 ± 0.032
5.82 K	0.735 ± 0.033
5.88 K	0.786 ± 0.035
6.15 K	1.05 ± 0.04
6.33 K	1.24 ± 0.04
6.6 K	1.54 ± 0.04
6.69 K	1.67 ± 0.04
6.89 K	1.87 ± 0.05
6.98 K	2.05 ± 0.05
7.07 K	2.12 ± 0.05
7.26 K	2.39 ± 0.05
7.35 K	2.49 ± 0.06
7.45 K	2.68 ± 0.06
7.54 K	2.82 ± 0.06
7.74 K	3.02 ± 0.06
8.03 K	3.55 ± 0.07
8.14 K	3.66 ± 0.07
8.24 K	3.76 ± 0.07
8.45 K	4.16 ± 0.08
8.55 K	4.34 ± 0.08
8.66 K	4.58 ± 0.08
8.77 K	4.69 ± 0.08
8.87 K	4.87 ± 0.08
9.09 K	5.28 ± 0.09
9.2 K	5.43 ± 0.09
9.42 K	5.78 ± 0.1
9.53 K	5.96 ± 0.1
9.76 K	6.52 ± 0.1
9.87 K	6.76 ± 0.11
9.98 K	6.85 ± 0.11
10 K	6.91 ± 0.11
10.26 K	7.37 ± 0.11
10.71 K	8.33 ± 0.12
11.16 K	9.2 ± 0.13
11.61 K	10.3 ± 0.2
12.08 K	11.3 ± 0.2
12.55 K	12.5 ± 0.2
13.04 K	13.6 ± 0.2
13.53 K	14.9 ± 0.2
14.03 K	16 ± 0.2
14.54 K	17.2 ± 0.2
15.05 K	18.56 ± 0.22
15.57 K	19.98 ± 0.24
16.09 K	21.47 ± 0.25
16.61 K	22.94 ± 0.26
17.14 K	24.46 ± 0.27
17.67 K	25.9 ± 0.28
18.2 K	27.48 ± 0.29
18.76 K	29 ± 0.3
19.31 K	30.77 ± 0.31
19.85 K	32.46 ± 0.32
20 K	32.91 ± 0.33
20.98 K	35.93 ± 0.34
22.55 K	40.49 ± 0.36
24.16 K	45.21 ± 0.38
25.78 K	49.77 ± 0.39
27.42 K	54.6 ± 0.4
29.07 K	59.44 ± 0.41
30 K	62.21 ± 0.32
30.73 K	64.36 ± 0.33
32.39 K	69.26 ± 0.35
34.07 K	74.01 ± 0.37
35.76 K	78.8 ± 0.39
37.45 K	83.46 ± 0.41
39.15 K	87.9 ± 0.42
40 K	90.12 ± 0.43
40.85 K	92.36 ± 0.44
42.56 K	96.45 ± 0.46
44.26 K	100.6 ± 0.5
45.97 K	104.7 ± 0.5
47.72 K	108.8 ± 0.5
49.44 K	112.6 ± 0.5
50 K	113.7 ± 0.5
51.16 K	116.5 ± 0.5
52.88 K	120.1 ± 0.6
54.61 K	123.5 ± 0.6
56.34 K	127.3 ± 0.6
58.07 K	131 ± 0.6
59.8 K	134.9 ± 0.6
60 K	135.4 ± 0.6
61.53 K	138.8 ± 0.6
63.27 K	142.4 ± 0.6
65.01 K	146.4 ± 0.7
66.75 K	150 ± 0.7
68.49 K	153.6 ± 0.7
70 K	156.1 ± 0.7
72.19 K	159.7 ± 0.7
74.35 K	163.7 ± 0.7
76.49 K	167.2 ± 0.7
78.63 K	170.6 ± 0.8
80 K	172.8 ± 0.8
80.76 K	173.7 ± 0.8
82.88 K	177.6 ± 0.8
84.02 K	179.7 ± 0.8
85.33 K	181.8 ± 0.8
87.83 K	185.8 ± 0.8
89.91 K	189.2 ± 0.8
90 K	189.7 ± 0.8
91.99 K	192.3 ± 0.8
94.06 K	195.1 ± 0.8
96.13 K	198.4 ± 0.8
98.18 K	201.3 ± 0.8
100 K	204.1 ± 0.8
100.24 K	204.2 ± 0.8
102.48 K	208.5 ± 0.8
104.92 K	211.3 ± 0.9
107.37 K	214.8 ± 0.9
109.82 K	217.8 ± 0.9
110 K	217.9 ± 0.9
112.27 K	220.9 ± 0.9
114.75 K	224.1 ± 0.9
117.24 K	227.3 ± 0.9
119.7 K	230.1 ± 0.9
120 K	230.8 ± 0.9
122.11 K	233.2 ± 0.9
124.58 K	236.3 ± 0.9
127.05 K	239.3 ± 0.9
129.51 K	242.1 ± 1
130 K	242.9 ± 1
131.98 K	245.1 ± 1
134.46 K	248.1 ± 1
136.93 K	251 ± 1
139.4 K	253.8 ± 1
140 K	254.4 ± 1
141.88 K	256.5 ± 1
144.36 K	259.3 ± 1
146.84 K	262.3 ± 1
149.32 K	264.6 ± 1
150 K	265.4 ± 1
151.8 K	267.5 ± 1
154.28 K	270.5 ± 1.1
156.76 K	273 ± 1.1
159.25 K	275.4 ± 1.1
160 K	276.3 ± 1.1
161.68 K	277.9 ± 1.1
164.17 K	280.8 ± 1.1
166.66 K	283.6 ± 1.1
169.14 K	286.4 ± 1.1
170 K	287.1 ± 1.1
171.63 K	288.8 ± 1.1
174.12 K	291.3 ± 1.1
179.09 K	296.7 ± 1.1
180 K	297.8 ± 1.2
181.58 K	299.2 ± 1.2
184.06 K	302 ± 1.2
186.55 K	304.6 ± 1.2
189.03 K	307.5 ± 1.2
190 K	308.6 ± 1.2
191.52 K	310 ± 1.2
194 K	312.6 ± 1.2
196.48 K	315.8 ± 1.2
198.96 K	318.2 ± 1.2
200 K	319.4 ± 1.2
201.37 K	321.1 ± 1.2
203.83 K	324 ± 1.2
206.3 K	326.7 ± 1.3
208.78 K	329.1 ± 1.3
210 K	330.4 ± 1.3
211.25 K	332.3 ± 1.3
213.73 K	334 ± 1.3
216.22 K	337 ± 1.3
218.7 K	339.9 ± 1.3
220 K	341.7 ± 1.3
221.19 K	342.7 ± 1.3
223.68 K	345.9 ± 1.3
226.17 K	348.6 ± 1.3
228.67 K	351.6 ± 1.3
230 K	353.2 ± 1.3
231.16 K	354.6 ± 1.3
233.66 K	357.7 ± 1.4
235.16 K	359.3 ± 1.4
237.7 K	362.3 ± 1.4
238.66 K	363.9 ± 1.4
240 K	365.1 ± 1.4
241.12 K	366.7 ± 1.4
243.63 K	369.8 ± 1.4
246.14 K	372.6 ± 1.4
248.65 K	375.9 ± 1.4
250 K	377.4 ± 1.4
251.17 K	379.2 ± 1.4
253.68 K	382.1 ± 1.4
256.2 K	385.3 ± 1.5
258.72 K	388.5 ± 1.5
260 K	390.2 ± 1.5
261.24 K	392 ± 1.5
263.76 K	395.2 ± 1.5
266.29 K	398.2 ± 1.5
268.81 K	401.5 ± 1.5
270 K	403.3 ± 1.5
271.34 K	405 ± 1.5
273.15 K	407.6 ± 1.5
273.87 K	408.1 ± 1.5
276.4 K	411.5 ± 1.5
278.93 K	415 ± 1.6
280 K	416.9 ± 1.6
281.43 K	418.6 ± 1.6
283.96 K	421.7 ± 1.6
286.49 K	425.5 ± 1.6
289.02 K	429.5 ± 1.6
290 K	430.8 ± 1.6
291.54 K	433.4 ± 1.6
294.07 K	436.3 ± 1.6
296.58 K	439.9 ± 1.6
298.15 K	442.5 ± 1.7
299.1 K	443.6 ± 1.7
300 K	445.2 ± 1.7
301.98 K	449.2 ± 1.7
305.32 K	453.3 ± 1.7
308.64 K	459.7 ± 1.7
310 K	460.1 ± 1.7
311.93 K	464 ± 1.7
315.18 K	468.4 ± 1.7
318.42 K	473.1 ± 1.8
320 K	475.7 ± 1.8
321.63 K	477.8 ± 1.8
324.82 K	483 ± 1.8
327.99 K	488.3 ± 1.8
330 K	492.4 ± 1.8
331.13 K	493.9 ± 1.8
334.25 K	499.5 ± 1.8
337.34 K	505.8 ± 1.9
340 K	511 ± 1.9
340.41 K	511.9 ± 1.9
343.45 K	518.1 ± 1.9
346.47 K	524.6 ± 1.9
349.45 K	530.9 ± 2
350 K	532.3 ± 2
352.15 K	537.6 ± 2
